32 compounds from patent US10604535B2, “Compounds, compositions and methods” (Denali Therapeutics Inc., priority 2016, dated 2020) can be followed below.

Bounds are passed on as bounds.

Chain of GST-hRIPK1 (8-327) (Q13546 8-327): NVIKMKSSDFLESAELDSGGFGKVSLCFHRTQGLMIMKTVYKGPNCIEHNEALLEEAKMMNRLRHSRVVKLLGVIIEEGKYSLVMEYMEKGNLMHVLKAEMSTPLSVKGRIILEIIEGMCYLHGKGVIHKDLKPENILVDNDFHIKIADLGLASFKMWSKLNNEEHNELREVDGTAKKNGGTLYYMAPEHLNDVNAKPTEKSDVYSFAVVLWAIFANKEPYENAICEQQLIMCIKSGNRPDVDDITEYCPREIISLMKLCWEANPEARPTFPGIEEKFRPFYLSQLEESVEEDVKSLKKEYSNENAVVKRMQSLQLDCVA

The assay addresses GST-hRIPK1 (8-327) (Homo sapiens (Human), UniProt Q13546). The assay can be described thus: Fluorescent Polarization Binding (FP Binding) assay.
What is called IC50 is the concentration needed to halve the response being measured. `O=C(N[C@H]1CC2(CC2)c2cccnc2NC1=O)c1nnc(Cc2ccccc2)[nH]1` [Example 98B, (S)-5-benzyl-N-(8′-oxo-6′,7′,8′,9′-tetrahydrospiro[cyclopropane-1,5′-pyrido[2,3-b]azepin]-7′-yl)-4H-1,2,4-triazole-3-carboxamide]: the IC50 was 0.1 to 1000 nM.

On to `CN1C(=O)[C@@H](NC(=O)c2cc(C#N)n(Cc3ccc(F)cc3)n2)COc2cccnc21` [Example 159, (S)-5-cyano-1-(4-fluorobenzyl)-N-(5-methyl-4-oxo-2,3,4,5-tetrahydropyrido[3,2-b][1,4]oxazepin-3-yl)-1H-pyrazole-3-carboxamide], for which the IC50 was 0.1 to 1000 nM.

As to `O=C(N[C@@H]1CC2(CC2)c2cccnc2NC1=O)c1nnc(Cc2ccccc2)[nH]1` [Example 98A, (R)-5-benzyl-N-(8′-oxo-6′,7′,8′,9′-tetrahydrospiro[cyclopropane-1,5′-pyrido[2,3-b]azepin]-7′-yl)-4H-1,2,4-triazole-3-carboxamide], the IC50 was above 3000 nM.

Turning to `CN1C(=O)[C@H](NC(=O)c2nn(Cc3cccc(C#N)c3)cc2F)CCc2cccnc21` [Example 152A, (R)-1-(3-cyanobenzyl)-4-fluoro-N-(9-methyl-8-oxo-6,7,8,9-tetrahydro-5H-pyrido[2,3-b]azepin-7-yl)-1H-pyrazole-3-carboxamide], the IC50 was above 3000 nM.

Compound `CN1C(=O)[C@@H](NC(=O)[C@H]2C[C@@H]2Cc2ccccc2)COc2ccccc21` (single isomer, unassigned) [Example 50B] yielded an IC50 of 1000 to 10000 nM.

`CN1C(=O)[C@H](NC(=O)c2nnc(Cc3ccccc3)[nH]2)CCc2c1cnn2C` [Example 101A, (R)-5-benzyl-N-(1,4-dimethyl-5-oxo-1,4,5,6,7,8-hexahydropyrazolo[4,3-b]azepin-6-yl)-4H-1,2,4-triazole-3-carboxamide] had an IC50 above 3000 nM.

As for `O=C(N[C@H]1COc2cccnc2NC1=O)c1nnc(C2CCc3ccccc32)[nH]1` (single isomer, unassigned) [Example 102B], the IC50 fell in the range of 0.1 to 1000 nM.

The compound `Cc1cc2n(n1)CC[C@@H](NC(=O)c1nnc(Cc3ccccc3)[nH]1)C(=O)N2C` [Example 129B, (R)-5-Benzyl-N-(2,4-dimethyl-5-oxo-5,6,7,8-tetrahydro-4H-pyrazolo[1,5-a][1,3]diazepin-6-yl)-4H-1,2,4-triazole-3-carboxamide] showed an IC50 above 3000 nM.

`CN1C(=O)[C@@H](NC(=O)c2cc3n(n2)CC[C@@H]3c2ccccc2)COc2ccccc21` [Example 13, (R)—N—((S)-5-methyl-4-oxo-2,3,4,5-tetrahydrobenzo[b][1,4]oxazepin-3-yl)-4-phenyl-5,6-dihydro-4H-pyrrolo[1,2-b]pyrazole-2-carboxamide]: the half-maximal inhibitory concentration (IC50) is 0.1 to 1000 nM.

Compound `C[C@H]1Oc2ncccc2N(C)C(=O)[C@H]1NC(=O)c1nnc(Cc2ccccc2)o1` [Example 193, 5-benzyl-N-((3S,4R)-1,4-dimethyl-2-oxo-1,2,3,4-tetrahydropyrido[2,3-b][1,4]oxazepin-3-yl)-1,3,4-oxadiazole-2-carboxamide] had an IC50 of 0.1 to 1000 nM.

For the compound `O=C(NC1COc2cccnc2-n2ccnc21)c1nn(Cc2ccccc2)cc1F` (stereo in doubt) [Example 154A, (R)-1-benzyl-N-(6,7-dihydroimidazo[1,2-d]pyrido[3,2-b][1,4]oxazepin-7-yl)-4-fluoro-1H-pyrazole-3-carboxamide], the 50% inhibitory concentration (IC50) is above 3000 nM.

The compound `CN1C(=O)[C@@H](NC(=O)c2nnc(Cc3ccccc3)o2)CCc2nccnc21` [Example 190, (S)-5-benzyl-N-(5-methyl-6-oxo-6,7,8,9-tetrahydro-5H-pyrazino[2,3-b]azepin-7-yl)-1,3,4-oxadiazole-2-carboxamide] had an IC50 of 0.1 to 1000 nM.

For the compound `CN1C(=O)[C@@H](NC(=O)c2ncc(S(=O)(=O)c3ccccc3)s2)COc2ccccc21` [Example 49, (S)—N-(5-methyl-4-oxo-2,3,4,5-tetrahydrobenzo[b][1,4]oxazepin-3-yl)-5-(phenylsulfonyl)thiazole-2-carboxamide], the IC50 lay in the range of 1000 to 10000 nM.

As to `CN1C(=O)[C@@H](NC(=O)C2CC(Cc3ccccc3)C2)COc2ccccc21` (stereo partly drawn) [Example 43, 3-benzyl-N—((S)-5-methyl-4-oxo-2,3,4,5-tetrahydrobenzo[b][1,4]oxazepin-3-yl)cyclobutane-1-carboxamide], the IC50 lay within 1000 to 10000 nM.

`CN1C(=O)[C@H](NC(=O)c2nn(Cc3ccccc3F)cc2F)CCc2nccnc21` [Example 178B, (R)-4-fluoro-1-(2-fluorobenzyl)-N-(5-methyl-6-oxo-6,7,8,9-tetrahydro-5H-pyrazino[2,3-b]azepin-7-yl)-1H-pyrazole-3-carboxamide]: the IC50 was above 3000 nM.

In turn, `CN1C(=O)[C@H](NC(=O)c2nnc(Cc3ccccc3)s2)[C@@H]2C[C@@H]2c2cccnc21` [Example 120B, 5-benzyl-N-((1aR,2R,8bS)-4-methyl-3-oxo-1,1a,2,3,4,8b-hexahydrocyclopropa-[d]pyrido[2,3-b]azepin-2-yl)-1,3,4-thiadiazole-2-carboxamide] displayed an IC50 above 3000 nM.

As to `CN1C(=O)[C@H](NC(=O)c2nn(Cc3ccccc3)cc2F)CCc2c1cnn2C` [Example 114B, (R)-1-benzyl-N-(1,4-dimethyl-5-oxo-1,4,5,6,7,8-hexahydropyrazolo[4,3-b]azepin-6-yl)-4-fluoro-1H-pyrazole-3-carboxamide], the IC50 was above 3000 nM.

`CN1C(=O)[C@@H](NC(=O)c2nnc(C3(c4ccccc4)CC3)[nH]2)COc2cnccc21` [Example 113, (S)—N-(1-methyl-2-oxo-1,2,3,4-tetrahydropyrido[3,4-b][1,4]oxazepin-3-yl)-5-(1-phenylcyclopropyl)-4H-1,2,4-triazole-3-carboxamide] displayed a half-inhibitory concentration (IC50) of 0.1 to 1000 nM.

Take `O=C(N[C@H]1C(=O)Nc2ncccc2[C@H]2C[C@H]21)c1nnc(Cc2ccccc2)[nH]1` [Example 110A, 5-benzyl-N-((1aR,2R,8bS)-3-oxo-1,1a,2,3,4,8b-hexahydrocyclopropa[d]pyrido[2,3-b]azepin-2-yl)-4H-1,2,4-triazole-3-carboxamide]: the IC50 was above 3000 nM.

`Cc1cnn2c1N(C)C(=O)[C@H](NC(=O)c1nnc(Cc3ccccc3)[nH]1)CC2` [Example 131B, (R)-5-Benzyl-N-(3,4-dimethyl-5-oxo-5,6,7,8-tetrahydro-4H-pyrazolo[1,5-a][1,3]diazepin-6-yl)-4H-1,2,4-triazole-3-carboxamide] gave a half-inhibitory concentration (IC50) above 3000 nM.

Compound `CN1C(=O)[C@H](NC(=O)c2nn(Cc3ccccc3)cc2F)CCc2cccnc21` [Example 111A, (R)-1-benzyl-4-fluoro-N-(9-methyl-8-oxo-6,7,8,9-tetrahydro-5H-pyrido[2,3-b]azepin-7-yl)-1H-pyrazole-3-carboxamide] yielded an IC50 of 1000 to 10000 nM.

`Cn1cc2c(n1)CC[C@H](NC(=O)c1nnc(Cc3ccccc3)[nH]1)C(=O)N2` [Example 104B, (S)-5-benzyl-N-(2-methyl-5-oxo-2,4,5,6,7,8-hexahydropyrazolo[4,3-b]azepin-6-yl)-4H-1,2,4-triazole-3-carboxamide] registered an IC50 of 0.1 to 1000 nM.

Compound `CN1C(=O)[C@@H](NC(=O)[C@@H]2C[C@H]2Cc2ccccc2)COc2ccccc21` (single isomer, unassigned) [Example 50A] yielded an IC50 of 0.1 to 1000 nM.

Turning to `Cc1ncccc1Cn1cc(F)c(C(=O)N[C@@H]2CCc3nccnc3N(C)C2=O)n1` [Example 182A, (R)-4-fluoro-N-(5-methyl-6-oxo-6,7,8,9-tetrahydro-5H-pyrazino[2,3-b]azepin-7-yl)-1-((2-methylpyridin-3-yl)methyl)-1H-pyrazole-3-carboxamide], the IC50 was above 3000 nM.

In the case of `CN1C(=O)[C@@H](NC(=O)C2CN(Cc3ccccc3)C2)COc2ccccc21` [Example 33, (S)-1-benzyl-N-(5-methyl-4-oxo-2,3,4,5-tetrahydrobenzo[b][1,4]oxazepin-3-yl) azetidine-3-carboxamide], the IC50 is above 10000 nM.

The compound `C[C@H]1Oc2cccnc2N(C)C(=O)[C@H]1NC(=O)c1nn(Cc2ccc(C#N)cc2)cc1F` [Example 127, 1-(4-Cyanobenzyl)-N-((2R,3S)-2,5-dimethyl-4-oxo-2,3,4,5-tetrahydropyrido[3,2-b][1,4]oxazepin-3-yl)-4-fluoro-1H-pyrazole-3-carboxamide] yielded an IC50 of 0.1 to 1000 nM.

Take `CN1C(=O)[C@@H](NC(=O)c2cnc(Cc3ccccc3)[nH]2)COc2cccnc21` [Example 108, (S)-2-benzyl-N-(5-methyl-4-oxo-2,3,4,5-tetrahydropyrido[3,2-b][1,4]oxazepin-3-yl)-1H-imidazole-5-carboxamide]: the IC50 is 0.1 to 1000 nM.

On to `CN1C(=O)[C@H](NC(=O)c2cc(Oc3ccccc3F)ccn2)[C@@H]2C[C@@H]2c2cccnc21` [Example 100B, 4-(2-fluorophenoxy)-N-((1aR,2R,8bS)-4-methyl-3-oxo-1,1a,2,3,4,8b-hexahydrocyclopropa[d]pyrido[2,3-b]azepin-2-yl)picolinamide], for which the IC50 was 0.1 to 1000 nM.

`CN1C(=O)[C@H](NC(=O)c2nnc(Cc3ccccc3)[nH]2)CCc2nn(C)cc21` [Example 105B, (R)-5-benzyl-N-(2,4-dimethyl-5-oxo-2,4,5,6,7,8-hexahydropyrazolo[4,3-b]azepin-6-yl)-4H-1,2,4-triazole-3-carboxamide] gave an IC50 above 3000 nM.

Take `CN1C(=O)[C@H](NC(=O)c2nnc(Cc3ccccc3)[nH]2)[C@@H]2C[C@@H]2c2nccnc21` [Example 119A, 5-benzyl-N-((7R,7aR,8aS)-5-methyl-6-oxo-5,6,7,7a,8,8a-hexahydro-cyclopropa[d]pyrazino[2,3-b]azepin-7-yl)-4H-1,2,4-triazole-3-carboxamide]: the IC50 is above 3000 nM.

With `O=C(N[C@@H]1C(=O)Nc2c(F)cc(F)cc2[C@H]2C[C@@H]12)c1nnc(Cc2ccccc2)[nH]1` [Example 176, 5-benzyl-N-((1aR,2S,8bS)-5,7-difluoro-3-oxo-1,1a,2,3,4,8b-hexahydrobenzo[b]cyclopropa[d]azepin-2-yl)-4H-1,2,4-triazole-3-carboxamide], the IC50 fell in the range of 0.1 to 1000 nM.

`CN1C(=O)[C@H](NC(=O)c2nn(Cc3ccc(F)cc3)cc2F)[C@@H]2C[C@@H]2c2cccnc21` [Example 156A, 4-fluoro-1-(4-fluorobenzyl)-N-((1aR,2R,8bS)-4-methyl-3-oxo-1,1a,2,3,4,8b-hexahydrocyclopropa[d]pyrido[2,3-b]azepin-2-yl)-1H-pyrazole-3-carboxamide]: the concentration for half-maximal inhibition (IC50) is above 3000 nM.
